Data published in paper PMC8119466, “A screen of FDA-approved drugs identifies inhibitors of protein tyrosine phosphatase 4A3 (PTP4A3 or PRL-3)” (Scientific Reports, 2021).
Where a name gives a salt, the structure may show the parent alone. Read-outs that look alike come from different tables or passages of the source.

How the values were obtained:
Assay type in all cases: biochemical
recombinant PRL-1 = molecular target: T1, recombinant PRL-1 (Homo sapiens, UniProt Q93096); assay: In vitro phosphatase assay (DiFMUP hydrolysis), PRL-1; also: test concentration or dose not given here
T1 construct: 6xHis (N, cleaved yes); made in house; host or cells: E. coli One Shot BL21 Star
T1 sequence (Q93096 1-173): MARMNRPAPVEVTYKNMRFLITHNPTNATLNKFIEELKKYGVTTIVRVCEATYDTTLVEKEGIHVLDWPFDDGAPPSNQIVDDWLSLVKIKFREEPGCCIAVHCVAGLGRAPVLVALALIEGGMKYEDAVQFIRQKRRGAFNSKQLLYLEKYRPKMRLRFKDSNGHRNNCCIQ

recombinant PRL-3 = molecular target: T2, recombinant PRL-3 (Homo sapiens, UniProt O75365); assay: In vitro phosphatase assay (DiFMUP hydrolysis), PRL-3; also: test concentration or dose not given here
T2 construct: 6xHis (N, cleaved yes); made in house; host or cells: E. coli One Shot BL21 Star
T2 sequence (O75365 whole entry): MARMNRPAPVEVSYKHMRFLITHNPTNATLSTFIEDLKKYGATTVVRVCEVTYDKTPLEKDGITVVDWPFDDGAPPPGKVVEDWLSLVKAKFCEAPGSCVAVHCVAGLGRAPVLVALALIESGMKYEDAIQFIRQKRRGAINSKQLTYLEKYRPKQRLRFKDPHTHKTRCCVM

recombinant PRL-2 = molecular target: T3, recombinant PRL-2 (Homo sapiens, UniProt Q12974); assay: In vitro phosphatase assay (DiFMUP hydrolysis), PRL-2;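 also: PRL-2 activity read as DiFMUP hydrolysis after 20 min at room temperature with drug, enzyme first pre-reduced at 4 °C for 20 min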
T3 construct: 6xHis (N, cleaved yes); made in house; host or cells: E. coli One Shot BL21 Star
T3 sequence (Q12974 1-167): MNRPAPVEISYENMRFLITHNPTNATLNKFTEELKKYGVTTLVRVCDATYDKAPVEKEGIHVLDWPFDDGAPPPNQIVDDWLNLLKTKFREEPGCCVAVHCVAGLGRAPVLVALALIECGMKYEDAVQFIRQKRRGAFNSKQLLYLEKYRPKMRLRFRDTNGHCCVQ
Method: Briefly, protein was diluted in reaction buffer and allowed to incubate at 4 °C for 20 min to allow for full reduction of the active site. DiFMUP, drug, and protein were added, and plates were incubated for 20 min at room temperature. Fluorescence intensities were measured on a Cytation 5 plate reader (Biotek) at an EX:360 nm and EM:460 nm. […] Inhibition selectivity for PRLs over a panel of other phosphatases was determined using PhosphataseProfiler (Eurofins, Cat # PP260).

[1] = FDA-approved drug screen, compared to DMSO

Row | SMILES | % Phosphatase Activity (compared to DMSO) PRL-1 (recombinant PRL-1; [1]) [%] | % Phosphatase Activity (compared to DMSO) PRL-3 (recombinant PRL-3; [1]) [%] | % Phosphatase Activity (compared to DMSO) PRL-2 (recombinant PRL-2; [1]) [%] | % Phosphatase Activity (compared to DMSO) PRL-1 (recombinant PRL-1) [%] | % Phosphatase Activity (compared to DMSO) PRL-3 (recombinant PRL-3) [%] | % Phosphatase Activity (compared to DMSO) PRL-2 (recombinant PRL-2) [%]
1 | COC(=O)N(C)c1c(N)nc(-c2nn(Cc3ccccc3F)c3ncccc23)nc1N [Riociguat (BAY 63-2521)] | 99 | 90 | 82 | – | – | –
2 | C[C@H]1CNCCCN1S(=O)(=O)c1cccc2cncc(F)c12 [Ripasudil (K-115)] | 95 | 96 | 94 | – | – | –
3 | Cc1nc2n(c(=O)c1CCN1CCC(c3noc4cc(F)ccc34)CC1)CCCC2 [Risperidone] | 104 | 88 | 94 | – | – | –
4 | CC(NCCc1ccc(O)cc1)C(O)c1ccc(O)cc1 (stereo not drawn) [Ritodrine HCl] | 113 | 83 | 98 | – | – | –
5 | CC(C)c1nc(CN(C)C(=O)N[C@H](C(=O)N[C@@H](Cc2ccccc2)C[C@H](O)[C@H](Cc2ccccc2)NC(=O)OCc2cncs2)C(C)C)cs1 [Ritonavir] | 103 | 90 | 108 | – | – | –
6 | O=C(NC[C@H]1CN(c2ccc(N3CCOCC3=O)cc2)C(=O)O1)c1ccc(Cl)s1 [Rivaroxaban] | 98 | 92 | 106 | – | – | –
7 | CCN(C)C(=O)Oc1cccc([C@H](C)N(C)C)c1 [Rivastigmine Tartrate] | 95 | 79 | 107 | – | – | –
8 | CCN(C)C(=O)Oc1cccc([C@H](C)N(C)C)c1 [Rivastigmine] | 98 | 92 | 94 | – | – | –
9 | CN(C)CCc1c[nH]c2ccc(Cn3cncn3)cc12 [Rizatriptan Benzoate] | 98 | 90 | 103 | – | – | –
10 | O=C(CCCCCCNC(=O)c1cnc(N(c2ccccc2)c2ccccc2)nc1)NO [Rocilinostat (ACY-1215)] | 102 | 97 | 98 | – | – | –
11 | C=CC[N+]1([C@H]2C[C@H]3[C@@H]4CC[C@H]5C[C@H](O)[C@@H](N6CCOCC6)C[C@]5(C)[C@H]4CC[C@]3(C)[C@H]2OC(C)=O)CCCC1 [Rocuronium Bromide] | 100 | 90 | 106 | – | – | –
12 | CS(=O)(=O)c1ccc(C2=C(c3ccccc3)C(=O)OC2)cc1 [Rofecoxib] | 110 | 92 | 120 | – | – | –
13 | O=C(Nc1c(Cl)cncc1Cl)c1ccc(OC(F)F)c(OCC2CC2)c1 [Roflumilast] | 107 | 87 | 101 | – | – | –
14 | COc1ccc(C2CNC(=O)C2)cc1OC1CCCC1 (stereo not drawn) [Rolipram] | 99 | 77 | 104 | – | – | –
15 | Cn1c([N+](=O)[O-])cnc1COC(N)=O [Ronidazole] | 86 | 62 | 95 | – | – | –
16 | CCCN(CCC)CCc1cccc2c1CC(=O)N2 [Ropinirole HCl] | 103 | 78 | 122 | – | – | –
17 | CCCN1CCCC[C@H]1C(=O)Nc1c(C)cccc1C [Ropivacaine HCl] | 100 | 80 | 110 | – | – | –
18 | CC[C@H](CO)Nc1nc(NCc2ccccc2)c2ncn(C(C)C)c2n1 [Roscovitine (Seliciclib,CYC202)] | – | – | – | 108 | 96 | 111
19 | CN(CCOc1ccc(CC2SC(=O)NC2=O)cc1)c1ccccn1.Cl (stereo not drawn) [Rosiglitazone HCl] | 103 | 79 | 116 | – | – | –
20 | CN(CCOc1ccc(CC2SC(=O)NC2=O)cc1)c1ccccn1 (stereo not drawn) [Rosiglitazone maleate] | 104 | 87 | 113 | – | – | –
21 | CN(CCOc1ccc(CC2SC(=O)NC2=O)cc1)c1ccccn1 (stereo not drawn) [Rosiglitazone] | 90 | 79 | 111 | – | – | –
22 | CC(C)c1nc(N(C)S(C)(=O)=O)nc(-c2ccc(F)cc2)c1/C=C/[C@@H](O)C[C@@H](O)CC(=O)O [Rosuvastatin Calcium] | 107 | 83 | 99 | – | – | –
23 | CCCN(CCc1cccs1)[C@H]1CCc2c(O)cccc2C1 [Rotigotine] | 100 | 82 | 99 | – | – | –
24 | CC(=O)OCC(=O)NCCCOc1cccc(CN2CCCCC2)c1 [Roxatidine Acetate HCl] | 96 | 95 | 111 | – | – | –
25 | CC[C@H]1OC(=O)[C@H](C)[C@@H](O[C@H]2C[C@@](C)(OC)[C@@H](O)[C@H](C)O2)[C@H](C)[C@@H](O[C@@H]2O[C@H](C)C[C@H](N(C)C)[C@H]2O)[C@](C)(O)C[C@@H](C)/C(=N\OCOCCOC)[C@H](C)[C@@H](O)[C@]1(C)O [Roxithromycin] | 93 | 70 | 105 | – | – | –
26 | CNCc1ccc(-c2[nH]c3cc(F)cc4c3c2CCNC4=O)cc1 [Rucaparib (AG-014699,PF-01367338)] | 2402 | 2134 | 3226 | – | – | –
27 | NC(=O)c1cn(Cc2c(F)cccc2F)nn1 [Rufinamide] | 91 | 77 | 91 | – | – | –
28 | Cc1cncc(CN2CCC(=C3c4ccc(Cl)cc4CCc4cccnc43)CC2)c1.O=C(O)/C=C/C(=O)O [Rupatadine Fumarate] | 92 | 98 | 100 | – | – | –
29 | C[C@@H]1O[C@@H](OC[C@H]2O[C@@H](Oc3c(-c4ccc(O)c(O)c4)oc4cc(O)cc(O)c4c3=O)[C@H](O)[C@@H](O)[C@@H]2O)[C@H](O)[C@H](O)[C@H]1O [Rutin] | 88 | 71 | 82 | – | – | –
30 | N#CC[C@H](C1CCCC1)n1cc(-c2ncnc3[nH]ccc23)cn1 [Ruxolitinib (INCB018424)] | 116 | 66 | 132 | – | – | –
